Data from publication PMC8765320, “Identification of a Proteasome-Targeting Arylsulfonamide with Potential for the Treatment of Chagas’ Disease” (Antimicrobial Agents and Chemotherapy, 2022).
Where two headings read alike, the source gives them in different places.

What was measured:
[1] = tested on: L. donovani promastigotes; assay: L. donovani promastigote drug sensitivity assay; format: cell-based, Leishmania donovani; settings: for EC50: Leishmania donovani
Protocol: L. donovani promastigote ([35]), axenic amastigote ([25]), and T. brucei bloodstream form ([36]) drug sensitivity assays were carried out as previously described. HepG2 monolayers were washed twice in PBS, detached with 0.05% trypsin/EDTA, and then diluted with fully supplemented MEM growth medium. Cells were pelleted at 80 × g for 5 min and resuspended in fully supplemented growth medium. Cells were seeded into 96-well plates (5 × 10^4/well) and allowed to adhere prior to exposure to test compounds. Plates were incubated at 37°C in the presence of 5% CO2 for 72 h. After incubation, resazurin (20 μl of a 2.5-mg/ml^−1 stock solution) was added to each well, followed by incubation for a further 2 h prior to fluorescence being read as described above.

[2] = tested on: T. cruzi epimastigotes; assay: T. cruzi epimastigote drug sensitivity assay (resazurin); format: cell-based, Trypanosoma cruzi; settings: for EC50: Trypanosoma cruzi
Protocol: To examine the effects of test compounds on the growth of T. cruzi epimastigotes, mid-log-phase parasites were seeded into 96-well plates at a cell density of 5 × 10^5 cells ml^−1. Cells were exposed to test compounds over a range of concentrations (2-fold serial dilutions). Cells were incubated for 4 days, and then 20 μl of 2.5 mM resazurin was added to each well, before measuring the fluorescence (excitation, 528 nm; emission, 590 nm), following a further 24 h of incubation. […] In this equation, [I] represents the inhibitor concentration, and m is the slope factor. Experiments were repeated at least two times, and the data are presented as means plus the standard deviations.

[3] = tested on: cytosolic T. cruzi malic enzyme (cTcME; C4B63_28g106); assay: Thermal proteome profiling, cTcME; format: binding, Trypanosoma cruzi; settings: for ΔTm 1 / ΔTm 2: malic enzyme C4B63_28g106
Protocol: Aliquots of each lysate were then incubated at designated temperatures (33 to 69°C) and then, for each temperature, insoluble (denatured) proteins were removed. The resulting soluble protein samples were reduced, alkylated, and digested with trypsin prior to derivatization with tandem mass tags. Pooled peptides were fractionated by high-pressure liquid chromatography and analyzed by LC/MS-MS prior to identification and quantitation. The melting points of identified proteins were then established using the TPP software package. Full melt curves were established for 6,771 proteins, representing 39.4% coverage of the T. cruzi proteome.
T. cruzi (X10/7 strain) mid-log-phase epimastigotes (∼1 × 10^10) were harvested by centrifugation (1,912 × g, 15 min, 4°C) and washed with ice-cold PBS (1,912 × g, 5 min, 4°C); finally, the cell pellet was resuspended in 8 ml of ice-cold lysis buffer (1 mM EDTA, 1 mM dithiothreitol [DTT], 100 μM TLCK [Nα-p-tosyl-L-lysine chloromethyl ketone], and 1× Roche EDTA-free COmplete protease inhibitor cocktail in 50 mM potassium phosphate buffer [pH 7.4]). The cell suspension was submitted to three freeze-thaw cycles in a dry ice/ethanol bath to biologically inactivate the parasites and then submitted to cell disruption (Constant Systems, UK) at 30 kpsi. The resulting lysate was centrifuged (100,000 × g, 20 min, 4°C), the supernatant was collected, and the protein concentration was determined using a Bio-Rad protein assay.
Each 2-ml aliquot (drug and vehicle treated) was divided into 10 × 100-μl aliquots in 0.5-ml thin-walled PCR tubes, followed by incubation at a designated temperature (33, 37, 41, 45, 49, 53, 57, 61, 65, or 69°C) for 3 min, followed in turn by incubation at room temperature for 3 min before each sample was placed on ice. Each aliquot was centrifuged (100,000 × g, 20 min, 4°C), the supernatants were harvested, and the protein concentration was assessed.
All aspects of sample processing, peptide and protein identification and quantitation, and target identification were carried out as previously described ([15]). However, in this instance, proteins were identified by searching the MS and MS/MS data for the peptides against T. cruzi proteome Dm28c 2018 version 50 (https://tritrypdb.org/tritrypdb).

[4] = tested on: L. donovani, T. cruzi, and T. brucei; assay: Phenotypic screening against three kinetoplastids; format: cell-based; settings: range over all three kinetoplastids; read-out: EC50 values against the mammalian stages of these parasites

Structure (SMILES): COc1ccc(NS(=O)(=O)c2cc(-c3cc(C)n[nH]3)ccc2C)cc1OC [Compound 1]
- fold change versus WT ([1]; L. donovani cell line cLdME OE): =
- fold change versus WT ([1]; L. donovani compound 2-resistant line (G197S in β5 subunit)): 260 fold
- EC99 in promastigotes ([1]; L. donovani promastigotes): 300 nM
- EC50 ([1]; read-out: Compound 1 EC50 values, L. donovani cell line Compound 2 RES III (G197S in β5 subunit)): 26 ± 4 µM
- EC50 ([1]; L. donovani cell line Wild-type, read-out: Compound 1 EC50 values): 0.1 ± 0.005 µM
- EC50 ([1]; L. donovani promastigote, weighted mean, n ≥ 3, read-out: Mean compound 1 EC50 ± SD): 0.1 ± 0.005 µM
- EC50 ([2]; T. cruzi epimastigote, weighted mean, n ≥ 3, read-out: Mean compound 1 EC50 ± SD): 3 ± 0.08 µM
- EC50 ([2]; WT promastigotes (so in the source), Fig. 2B, one biological replicate, read-out: EC50): 0.7 ± 0.01 µM
- EC50 ([2]; cell line Wild type, read-out: Mean EC50 ± SD): 3.3 ± 0.08 µM
- EC50 ([2]; read-out: Mean EC50 ± SD, cell line ME OE (cTcME overexpressing)): 5 ± 0.11 µM
- EC50 ([2]; read-out: Mean EC50 ± SD, cell line RES I (compound 1-resistant, β5 D225N)): 61 ± 1 µM
- EC50 ([2]; read-out: Mean EC50 ± SD, cell line RES II (compound 1-resistant, β5 D225N)): 54 ± 1 µM
- EC50 ([2]; read-out: Mean EC50 ± SD, cell line RES III (compound 1-resistant, β5 D225N)): 61 ± 0.7 µM
- EC50 ([2]; read-out: Mean EC50 ± SD, cell line RES IV (compound 1-resistant, no proteasome mutation)): 31 ± 2 µM
- EC50 ([2]; read-out: Mean EC50 ± SD, cell line RES V (compound 1-resistant, β4 I27T)): 70 ± 2 µM
- EC50 ([2]; read-out: Mean EC50 ± SD, cell line Res I-β5 OE (β5 WT overexpressed in RES I)): 13 ± 0.8 µM
- EC50 ([2]; read-out: Mean EC50 ± SD, cell line β4 F24L/I29M (CRISPR-edited)): > 50 µM
- EC50 ([2]; read-out: Mean EC50 ± SD, cell line β5 D225N-OE (overexpressing mutated β5)): 27 ± 1 µM
- EC50 ([2]; resistant clone I, Fig. 2B, one biological replicate, read-out: EC50): 23 ± 4 µM
- EC50 ([2]; resistant clone II, Fig. 2B, one biological replicate, read-out: EC50): 16 ± 0.3 µM
- EC50 ([2]; resistant clone IV, Fig. 2B, one biological replicate, read-out: EC50): 11 ± 1 µM
- EC50 ([2]; resistant clone V, Fig. 2B, one biological replicate, read-out: EC50): 14 ± 6 µM
- fold change versus the WT ([2]; cell line ME OE): 1 fold
- fold change versus the WT ([2]; cell line RES I): 18 fold
- fold change versus the WT ([2]; cell line RES II): 16 fold
- fold change versus the WT ([2]; cell line RES III): 18 fold
- fold change versus the WT ([2]; cell line RES IV): 9 fold
- fold change versus the WT ([2]; cell line RES V): 21 fold
- fold change versus the WT ([2]; cell line Res I-β5 OE): 4 fold
- fold change versus the WT ([2]; cell line β4 F24L/I29M): > 15 fold
- fold change versus the WT ([2]; cell line β5 D225N-OE): 8 fold
- susceptibility of CRISPR-edited epimastigotes ([2]; β4 F24L and I29M, at all of the concentrations tested): refractory
- increase in thermal stability of cTcME (mean ΔTm) ([3]; experiment 1, lysate, compound at 10× EC50 (20 μM)): 8.8 °C
- ΔTm 1 ([3]; biological replicate 1): 8.6 °C
- ΔTm 2 ([3]; biological replicate 1): 9.08 °C
- ΔTm 1 ([3]; biological replicate 2): 5.6 °C
- ΔTm 2 ([3]; biological replicate 2): 3.73 °C
- EC50 [4]: 0.1 to 8 µM
